In brackets after ≈: the same amount, converted by molar mass. Where two headings read alike, the source gives them in different places.
What was measured:
Test in all cases: in vitro antibacterial activity, standard agar dilution method
Format in all cases: cell-based
[1] = tested on: Bacillus subtilis PCI 219; settings: PCI219, aerobic, read-out: minimum inhibitory concentration (MIC)
[2] = tested on: Staphylococcus aureus FDA 209P JC-1; settings: FDA209P, read-out: minimum inhibitory concentration (MIC)
[3] = tested on: Staphylococcus aureus NR 2855; settings: NR2855; Staphylococcus aureus NR 2855; aerobic; agar dilution; read-out: minimum inhibitory concentration (MIC)
[4] = tested on: Staphylococcus aureus Smith; settings: read-out: minimum inhibitory concentration (MIC)
[5] = tested on: Staphylococcus epidermidis IFO 12993; settings: IFO12993, aerobic, read-out: minimum inhibitory concentration (MIC)
[6] = tested on: Staphylococcus epidermidis NR 2942; settings: NR2942, aerobic, read-out: minimum inhibitory concentration (MIC)
[7] = tested on: Enterococcus faecalis NR 2943; settings: NR2943, aerobic, read-out: minimum inhibitory concentration (MIC)
[8] = tested on: Alcaligenes faecalis IFO 13111; settings: IFO13111, aerobic, read-out: minimum inhibitory concentration (MIC)
[9] = tested on: Citrobacter freundii IFO 12681; settings: IFO12681, aerobic, read-out: minimum inhibitory concentration (MIC)
[10] = tested on: Enterobacter aerogenes NR 2945; settings: Klebsiella aerogenes, NR2945, aerobic, read-out: minimum inhibitory concentration (MIC)
[11] = tested on: Enterobacter cloacae NR 2946; settings: NR2946, aerobic, read-out: minimum inhibitory concentration (MIC)
[12] = tested on: Escherichia coli NIHJ JC-2; settings: NIHJJC2, aerobic, read-out: minimum inhibitory concentration (MIC)
[13] = tested on: Escherichia coli NR 2630; settings: NR2630; Escherichia coli NR 2630; aerobic; agar dilution; read-out: minimum inhibitory concentration (MIC)
[14] = tested on: Klebsiella pneumoniae FDA PCI 602; settings: FDAPCI602, aerobic, read-out: minimum inhibitory concentration (MIC)
[15] = tested on: Bordetella bronchiseptica ATCC 4617; settings: ATCC4617, aerobic, read-out: minimum inhibitory concentration (MIC)
[16] = tested on: Proteus rettgeri ATCC 14505; settings: Providencia rettgeri, ATCC14505, aerobic, read-out: minimum inhibitory concentration (MIC)
[17] = tested on: Proteus vulgaris OX19 ATCC 6898; settings: ATCC6898, aerobic, read-out: minimum inhibitory concentration (MIC)
[18] = tested on: Pseudomonas aeruginosa A3; settings: aerobic, read-out: minimum inhibitory concentration (MIC)
[19] = tested on: Pseudomonas aeruginosa NR 2950; settings: NR2950, aerobic, read-out: minimum inhibitory concentration (MIC)
[20] = tested on: Pseudomonas stutzeri IFO 12695; settings: Stutzerimonas stutzeri, IFO12695, aerobic, read-out: minimum inhibitory concentration (MIC)
[21] = tested on: Serratia marcescens IFO 12648; settings: IFO12648, aerobic, read-out: minimum inhibitory concentration (MIC)
[22] = tested on: Salmonella typhimurium IFO 12529; settings: Salmonella enterica, aerobic, read-out: minimum inhibitory concentration (MIC)
[23] = Staphylococcus aureus FDA 209P JC-1, aerobic, agar dilution
[24] = Staphylococcus aureus Smith, aerobic, agar dilution

Row | MIC [1] | MIC [3] | MIC [5] | MIC [6] | MIC [7] | MIC [8] | MIC [9] | MIC [10] | MIC [11] | MIC [12] | MIC [13] | MIC [14] | MIC [15] | MIC [16] | MIC [17] | MIC [18] | MIC [19] | MIC [20] | MIC [21] | MIC [22] | Compound | also measured
1 | 0.025 µg/mL (≈ 0.0551 µM) | 0.1 µg/mL (≈ 0.221 µM) | 0.1 µg/mL (≈ 0.221 µM) | 0.1 µg/mL (≈ 0.221 µM) | 1.56 µg/mL (≈ 3.44 µM) | 3.13 µg/mL (≈ 6.9 µM) | 0.1 µg/mL (≈ 0.221 µM) | 0.1 µg/mL (≈ 0.221 µM) | 0.2 µg/mL (≈ 0.441 µM) | 0.2 µg/mL (≈ 0.441 µM) | 0.05 µg/mL (≈ 0.11 µM) | 0.39 µg/mL (≈ 0.86 µM) | 0.78 µg/mL (≈ 1.72 µM) | 1.56 µg/mL (≈ 3.44 µM) | 0.1 µg/mL (≈ 0.221 µM) | 0.78 µg/mL (≈ 1.72 µM) | 12.5 µg/mL (≈ 27.6 µM) | 0.2 µg/mL (≈ 0.441 µM) | 0.78 µg/mL (≈ 1.72 µM) | 0.1 µg/mL (≈ 0.221 µM) | CN1COc2c(N3CCN(Cc4ccc(N)cc4)CC3)c(F)cc3c(=O)c(C(=O)O)cn1c23 [Example 53, 10-[4-(4-aminobenzyl)-1-piperazinyl]-9-fluoro-3-methyl-7-oxo-2,3-dihydro-7H-pyrido[3,2,1-ij]-1,3,4-benzoxadiazine-6-carboxylic acid] | MIC [2, 23]: 0.1 µg/mL (≈ 0.221 µM); MIC [4, 24]: 0.05 µg/mL (≈ 0.11 µM)
2 | 0.025 µg/mL (≈ 0.069 µM) | 0.2 µg/mL (≈ 0.552 µM) | 0.1 µg/mL (≈ 0.276 µM) | 0.1 µg/mL (≈ 0.276 µM) | 1.56 µg/mL (≈ 4.31 µM) | 6.25 µg/mL (≈ 17.2 µM) | 0.1 µg/mL (≈ 0.276 µM) | 0.025 µg/mL (≈ 0.069 µM) | 0.1 µg/mL (≈ 0.276 µM) | 0.1 µg/mL (≈ 0.276 µM) | 0.025 µg/mL (≈ 0.069 µM) | 0.78 µg/mL (≈ 2.15 µM) | 3.13 µg/mL (≈ 8.64 µM) | 0.78 µg/mL (≈ 2.15 µM) | 0.013 µg/mL (≈ 0.0359 µM) | 0.2 µg/mL (≈ 0.552 µM) | 1.56 µg/mL (≈ 4.31 µM) | 0.013 µg/mL (≈ 0.0359 µM) | 0.39 µg/mL (≈ 1.08 µM) | 0.025 µg/mL (≈ 0.069 µM) | CN1COc2c(N3CCC(CN)C3)c(F)cc3c(=O)c(C(=O)O)cn1c23 (centres unmarked) [Example 54, 10-[3-(aminomethyl)-1-pyrrolidinyl]-9-fluoro-3-methyl-7-oxo-2,3-dihydro-7H-pyrido[3,2,1-ij]-1,3,4-benzoxadiazine-6-carboxylic acid] | MIC [2, 23]: 0.013 µg/mL (≈ 0.0359 µM); MIC [4, 24]: 0.025 µg/mL (≈ 0.069 µM)
3 | 0.2 µg/mL (≈ 0.507 µM) | 1.56 µg/mL (≈ 3.96 µM) | 1.56 µg/mL (≈ 3.96 µM) | 1.56 µg/mL (≈ 3.96 µM) | 12.5 µg/mL (≈ 31.7 µM) | 3.13 µg/mL (≈ 7.94 µM) | 0.1 µg/mL (≈ 0.254 µM) | 0.1 µg/mL (≈ 0.254 µM) | 0.2 µg/mL (≈ 0.507 µM) | 0.2 µg/mL (≈ 0.507 µM) | 0.1 µg/mL (≈ 0.254 µM) | 0.39 µg/mL (≈ 0.989 µM) | 0.78 µg/mL (≈ 1.98 µM) | 0.78 µg/mL (≈ 1.98 µM) | 0.05 µg/mL (≈ 0.127 µM) | 0.78 µg/mL (≈ 1.98 µM) | 6.25 µg/mL (≈ 15.8 µM) | 0.2 µg/mL (≈ 0.507 µM) | 0.2 µg/mL (≈ 0.507 µM) | 0.1 µg/mL (≈ 0.254 µM) | CN1CCN(c2c(F)cc3c(=O)c(C(=O)O)cn4c3c2OCN4CCF)CC1 [Example 69, 9-fluoro-3-(2-fluoroethyl)-10-(4-methyl-1-piperazinyl)-7-oxo-2,3-dihydro-7H-pyrido[3,2,1-ij]-1,3,4-benzoxadiazine-6-carboxylic acid] | MIC [2, 23]: 1.56 µg/mL (≈ 3.96 µM); MIC [4, 24]: 0.78 µg/mL (≈ 1.98 µM)

Row | Compound | MIC [1] | MIC [3] | MIC [5] | MIC [6] | MIC [7] | MIC [8] | MIC [9] | MIC [10] | MIC [11] | MIC [12] | MIC [13] | MIC [14] | MIC [15] | MIC [16] | MIC [17] | MIC [18] | MIC [19] | MIC [20] | MIC [21] | MIC [22] | also measured
4 | CN1COc2c(N3CCC(Cl)C3)c(F)cc3c(=O)c(C(=O)O)cn1c23 (centres unmarked) [Example 59, 10-(3-chloro-1-pyrrolidinyl)-9-fluoro-3-methyl-7-oxo-2,3-dihydro-7H-pyrido[3,2,1-ij]-1,3,4-benzoxadiazine-6-carboxylic acid] | 0.0065 µg/mL (≈ 0.0177 µM) | 0.1 µg/mL (≈ 0.272 µM) | 0.39 µg/mL (≈ 1.06 µM) | 0.2 µg/mL (≈ 0.544 µM) | 3.13 µg/mL (≈ 8.51 µM) | 6.25 µg/mL (≈ 17 µM) | 1.56 µg/mL (≈ 4.24 µM) | 0.78 µg/mL (≈ 2.12 µM) | 0.78 µg/mL (≈ 2.12 µM) | 1.56 µg/mL (≈ 4.24 µM) | 0.39 µg/mL (≈ 1.06 µM) | 3.13 µg/mL (≈ 8.51 µM) | 3.13 µg/mL (≈ 8.51 µM) | 3.13 µg/mL (≈ 8.51 µM) | 0.2 µg/mL (≈ 0.544 µM) | 3.13 µg/mL (≈ 8.51 µM) | 25 µg/mL (≈ 68 µM) | 1.56 µg/mL (≈ 4.24 µM) | 3.13 µg/mL (≈ 8.51 µM) | 1.56 µg/mL (≈ 4.24 µM) | MIC ([2]; Staphylococcus aureus): 0.39 µg/mL (≈ 1.06 µM); MIC [4, 24]: 0.05 µg/mL (≈ 0.136 µM)
5 | CN1COc2c(N3CCC(N)C3)c(F)cc3c(=O)c(C(=O)OCOC(=O)C(C)(C)C)cn1c23 (centres unmarked) [Example 63, pivaloyloxymethyl 10-(3-amino-1-pyrrolidinyl)-9-fluoro-3-methyl-7-oxo-2,3-dihydro-7H-pyrido[3,2,1-ij]-1,3,4-benzoxadiazine-6-carboxylate] | 0.78 µg/mL (≈ 1.69 µM) | 3.13 µg/mL (≈ 6.77 µM) | 1.56 µg/mL (≈ 3.37 µM) | 0.78 µg/mL (≈ 1.69 µM) | 25 µg/mL (≈ 54.1 µM) | 100 µg/mL (≈ 216 µM) | 0.78 µg/mL (≈ 1.69 µM) | 0.39 µg/mL (≈ 0.843 µM) | 1.56 µg/mL (≈ 3.37 µM) | 1.56 µg/mL (≈ 3.37 µM) | 0.78 µg/mL (≈ 1.69 µM) | 6.25 µg/mL (≈ 13.5 µM) | 50 µg/mL (≈ 108 µM) | 6.25 µg/mL (≈ 13.5 µM) | 0.39 µg/mL (≈ 0.843 µM) | 3.13 µg/mL (≈ 6.77 µM) | 25 µg/mL (≈ 54.1 µM) | 0.39 µg/mL (≈ 0.843 µM) | 3.13 µg/mL (≈ 6.77 µM) | 0.78 µg/mL (≈ 1.69 µM) | MIC [2, 23]: 0.78 µg/mL (≈ 1.69 µM); MIC ([4]; Staphylococcus aureus): 0.39 µg/mL (≈ 0.843 µM)

Source: patent US4864023A, “Pyrido(3,2,1-IJ)-1,3,4-benzoxadiazine derivatives” (priority 1988, dated 1989)
